In US12116348B2, “Substituted benzimidazole compound and composition comprising same” (Shenzhen TargetRx, Inc., priority 2017, dated 2024) one finds IC50, microsomal CLint and half-life data, which are given here for five compounds.

Series [1] has as its system HT-29 cells. As to the kind of experiment: Cytotoxicity experiment: viability of HT-29 cells (CellTiter-Glo). Type of series: cell-based. As to conditions: Homo sapiens, 72 hours, CTG analysis, read-out: HT-29 cell IC50. On the procedure: (1) Cytotoxicity Experiment
The inhibitory effects of the example compounds on the viability of HT-29 cells were tested.
Cell line: HT-29 (cell type: adherent; number of cells/well: 3000; medium: RPMI-1640+10% FBS) was cultured under the condition of 37° C., 5% CO2, and 95% humidity.
Materials and Reagents: Fetal bovine serum (FBS, GBICO, Cat. No. 10099-141), CellTiter-Glo® Luminescent Cell Viability Assay (Promega, Cat. No. G7572), 96-well plate with transparent flat bottom and black walls (Corning®, Cat. No. 3603).
Instruments: SpectraMax multi-label microplate reader, MD, 2104-0010A; CO2 incubator, Thermo Scientific, Model 3100 Series; biosafety cabinet, Thermo Scientific, Model 1300 Series A2; inverted microscope, Olympus, CKX41SF; refrigerator, SIEMENS, KK25E76TI.
• 1) Cell culture and inoculation: i) cells in the logarithmic growth phase were harvested and counted using a […]. The cell viability was determined by trypan blue exclusion method to ensure that the cell viability was greater than 90%; ii) the cell concentration was adjusted; and 90 μL of the cell suspension was added into a 96-well plate, respectively; iii) the cells in the 96-well plate were cultured overnight under the condition of 37° C., 5% CO2 and 95% humidity. • 2) Drug dilution and dosing: i) the 10-fold drug solutions were prepared with a maximum concentration of 100 μM, which was diluted using a 3.16-fold serial gradient dilution, resulting in 9 concentrations. 10 μL of the drug solutions was added to each well of the 96-well plate inoculated with cells; and each drug concentration was tested in triplicate; ii) the cells in the 96-well plate added with drugs were cultured under the condition of 37° C., 5% CO2 and 95% humidity for 72 hours, and then CTG analysis was carried out. • 3) Plate reading at the end point: i) CTG reagent was thawed and the cell plate was equilibrated to room temperature for 30 minutes; ii) equal volume of the CTG solution was added to each well; iii) the cell plate was shaked on the orbital shaker for 5 minutes to lyse the cells; iv) the cell plate was placed at room temperature for 20 minutes to stabilize the cold light signal; v) the cold light values were read.
Data processing: GraphPad Prism 5.0 software was used to analyze the data, and the data was fitted using the non-linear S-curve regression to get a dose-effect curve, and IC50 values were calculated accordingly. Cell viability (%)=(Lum of test drug−Lum of medium control)/(Lum of cell control−Lum of medium control)×100%.

The nature of series [2]: Metabolic stability evaluation in mouse liver microsomes. Type of series: in vitro ADME. The following applies: SD, pH 7.4, mouse liver microsomes 0.5 mg/mL, compound 1 μM; for microsomal CLint at 1 μM: liver intrinsic clearance; for half-life at 1 μM: NADPH, 37° C. On the procedure:
(2) Metabolic Stability Evaluation
Microsome assay: mouse liver microsomes: 0.5 mg/mL, Xenotech; coenzyme (NADPH/NADH): 1 mM, Sigma Life Science; magnesium chloride: 5 mM, 100 mM phosphate buffer (pH 7.4).
Preparation of stock solutions: Powder of the example compounds were accurately weighed and dissolved in DMSO to 5 mM respectively.
Preparation of phosphate buffer (100 mM, pH7.4): A pre-prepared 0.5M potassium dihydrogen phosphate (150 mL) was mixed with 0.5M dibasic potassium phosphate (700 mL). The pH of the mixture was adjusted to 7.4 with 0.5M dibasic potassium phosphate solution. The mixture was diluted 5-fold with ultrapure water before use, and magnesium chloride was added to obtain a phosphate buffer (100 mM) containing 100 mM potassium phosphate, 3.3 mM magnesium chloride, pH 7.4.
A NADPH regeneration system solution (containing 6.5 mM NADP, 16.5 mM G-6-P, 3 U/mL G-6-P D, 3.3 mM magnesium chloride) was prepared and placed on wet ice prior to use.
Preparation of stop solution: an acetonitrile solution containing 50 ng/mL propranolol hydrochloride and 200 ng/mL tolbutamide (internal standard). 25057.5 μL of phosphate buffer (pH 7.4) was taken into a 50 mL centrifuge tube, to which 812.5 μL of SD mouse liver microsomes were added, and mixed to obtain a liver microsome dilution with a protein concentration of 0.625 mg/mL.
Incubation of the samples: The stock solutions of the respective compounds were respectively diluted to 0.25 mM with an aqueous solution containing 70% acetonitrile, and used as a working solution, ready for use. 398 μL of the dilutions of mouse liver microsomes were added to 96-well incubation plates (N=2), respectively, and 2 μL of 0.25 mM working solution was added respectively and mixed.
Metabolic stability assay: 300 μL of pre-chilled stop solution was added to each well of 96-well deep well plates and placed on ice as stop plates. The 96-well incubation plates and NADPH regeneration system were placed in a 37° C. water bath, shaken at 100 rpm and pre-incubated for 5 min. 80 μL of incubation solution was taken out from each well of the incubation plates and added to the stop plates, mixed, and replenished with 20 μL of NADPH regeneration system solution as a 0-min sample. 80 μL of NADPH regeneration system solution was added to each well of the incubation plates to start the reaction and start counting. […] Separately, 100 μL of the reaction solutions was taken at 10, 30, and 90 min after the reaction, respectively, added to stop plates, and vortexed for 3 minutes to terminate the reaction. The stop plates were centrifuged at 5000×g at 4° C. for 10 min. 100 μL of the supernatant was added to a 96-well plate to which 100 μL of distilled water was previously added, mixed, and analyzed by LC-MS/MS.
Data analysis: The peak areas of the corresponding compounds and internal standard were detected by LC-MS/MS system, and the ratio of the peak area of the compounds to the internal standard was calculated.

Take `[2H]C([2H])([2H])n1cnc2c(F)c(Nc3ccc(Br)cc3Cl)c(C(=O)NOCCO)cc21` [A-1, 6-(4-bromo-2-chloro-phenylamino)-7-fluoro-3-(methyl-d3)-3H-benzimidazole-5-carboxylic acid (2-hydroxyethoxy)-amide]: in series [1], the IC50 is less than 0.5 nM. In series [2], the intrinsic clearance (microsomal CLint) at 1 μM was determined as 19.7 µL/min/mg and the half-life at 1 μM was determined as 70.3 min.
In the same order, the values of `[2H]C([2H])(O)CONC(=O)c1cc2c(ncn2C)c(F)c1Nc1ccc(Br)cc1Cl` [A-4, 6-(4-bromo-2-chlorophenylamino)-7-fluoro-3-methyl-3H-benzimidazole-5-carboxylic acid (2-hydroxyethoxy-2,2-d2)amide] are less than 0.5 nM, 24.6 µL/min/mg and 56.4 min.
The corresponding values for `[2H]C([2H])(O)CONC(=O)c1cc2c(ncn2C([2H])([2H])[2H])c(F)c1Nc1ccc(Br)cc1Cl` [A-5, 6-(4-bromo-2-chlorophenylamino)-7-fluoro-3-(methyl-d3)-3H-benzimidazole-5-carboxylic acid (2-hydroxyethoxy-2,2-d2)amide] are less than 0.5 nM, 20.9 µL/min/mg and 66.4 min.
As to `[2H]C([2H])(O)C([2H])([2H])ONC(=O)c1cc2c(ncn2C)c(F)c1Nc1ccc(Br)cc1Cl` [A-6, 6-(4-bromo-2-chlorophenylamino)-7-fluoro-3-methyl-3H-benzimidazole-5-carboxylic acid (2-hydroxyethoxy-1,1,2,2-d4)amide], in series [2], the microsomal CLint at 1 μM worked out at 19.8 µL/min/mg and the half-life at 1 μM came to 70.2 min.
Take `Cn1cnc2c(F)c(Nc3ccc(Br)cc3Cl)c(C(=O)NOCCO)cc21` [Selumetinib, 6-(4-bromo-2-chloro-phenylamino)-7-fluoro-3-methyl-3H-benzimidazole-5-carboxylic acid (2-hydroxy-ethoxy)-amide, reference compound]: in series [1], the IC50 was less than 0.5 nM. In series [2], this compound returned an intrinsic metabolic clearance (microsomal CLint) at 1 μM of 23.6 µL/min/mg and a half-life at 1 μM of 58.7 min.

Broadly, the IC50 is the point on the concentration scale where inhibition reaches its midpoint. As a reminder, the microsomal CLint is the rate of metabolic loss divided by the concentration. Low readings indicate slow turnover, high ones rapid turnover. As usually defined, the half-life is how long it takes for the measured level to halve.
